Laboratory results as given in PMC10011747, “Targeting androgen receptor and the variants by an orally bioavailable Proteolysis Targeting Chimeras compound in castration resistant prostate cancer” (eBioMedicine, 2023).

Columns and labels:
Type in all cases: cell-based, human
full-length AR = assay: AR degradation by western blot in prostate cancer cell lines; conditions: 24 h treatment; LNCaP, CWR22Rv1, VCaP
Experimental: To obtain total lysates, cells were lysed in RIPA buffer (50 mM Tris–HCl pH 8.0, 150 mM NaCl, 1% NP-40, 0.5% Na-deoxycholate, 0.5% SDS plus protease inhibitors). The lysates were resolved by SDS-polyacrylamide gel electrophoresis, and the protein expression was analyzed by western blotting using primary antibodies against AR (Millipore Cat# 06-680, RRID:AB_310214), AR-V7 (RevMAb Biosciences Cat# 31-1109-00, RRID:AB_2716436), GAPDH (Cell Signaling Technology Cat# 2118, RRID:AB_561053) and Actin (Sigma–Aldrich Cat# A5441, RRID:AB_476744). pLenti4/TO/Flag-AR or pLenti4/TO/Flag-TC-AR plasmid was co-transfected with HA-ubiquitin plasmid into 293T cells. 24 h after transfection, the cells were treated with 10 μM of the PROTAC compounds for 16 h, followed by 4-h treatment of 5 μM MG132. The cells were lysed with lysis buffer (50 mM Tris–HCl pH7.5, 150 mM NaCl, 0. 5% Triton X-100, 10% glycerol, 1 mM EDTA plus protease inhibitors) containing 1 ng/mL of N-ethylmaleimide, followed by immunoprecipitation with anti-Flag M2 (Sigma–Aldrich Cat# F3165, RRID:AB_259529) antibody. The ubiquitinated AR was then detected by western blotting using anti-HA (Sigma–Aldrich Cat# H3663, RRID:AB_262051) antibody.
Fig. 1 PROTAC-based AR degraders ITRI-90, ITRI-125 and ITRI-126 reduce AR and AR-V7 proteins in prostate cancer cell lines. (a) Chemical structure of the PROTAC AR degraders. (b) Representative western blots of AR protein levels in LNCaP, CWR22Rv1 and VCaP cells treated with the PROTAC degraders for 24 h. AR was detected by N-terminal antibody which also detects C-terminal truncated AR-V(ΔLBD) in CWR22Rv1 cells. AR-V7 specific antibody was used for AR-V7 detection. 4%–12% gradient gel was used to separate different species of AR-V(ΔLBD) near 75 kDa in CWR22Rv1 cell lysates. DC50 indicating the concentration required to achieve 50% degradation, was calculated based on normalized full-length AR and AR-V7 band intensity. Dmax is the maximum degradation achieved at 20 μM compound treatment. TEXT PRINTED IN THE PICTURE: (a) ITRI-90: AR DC50 (μM) LNCaP: 2.12 ± 0.93; AR DC50 (μM) CWR22Rv1: 5.73 ± 2.28; AR DC50 (μM) VCaP: 8.67 ± 4.87; AR-V7 DC50 (μM) CWR22Rv1: 4.72 ± 2.52; AR-V7 DC50 (μM) VCaP: 0.29 ± 0.15; AR Dmax (%) LNCaP: 88; AR Dmax (%) CWR22Rv1: 98; AR Dmax (%) VCaP: 90; AR-V7 Dmax (%) CWR22Rv1: 100; AR-V7 Dmax (%) VCaP: 63 | (a) ITRI-125: AR DC50 (μM) LNCaP: 6.10 ± 4.43; AR DC50 (μM) CWR22Rv1: 6.64 ± 1.87; AR DC50 (μM) VCaP: 9.05 ± 3.75; AR-V7 DC50 (μM) CWR22Rv1: 1.89 ± 1.06; AR-V7 DC50 (μM) VCaP: 0.52 ± 0.37; AR Dmax (%) LNCaP: 71; AR Dmax (%) CWR22Rv1: 96; AR Dmax (%) VCaP: 85; AR-V7 Dmax (%) CWR22Rv1: 99; AR-V7 Dmax (%) VCaP: 67 | (a) ITRI-126: AR DC50 (μM) LNCaP: 3.41 ± 3.13; AR DC50 (μM) CWR22Rv1: 0.11 ± 0.02; AR DC50 (μM) VCaP: 0.851 ± 0.43; AR-V7 DC50 (μM) CWR22Rv1: 0.011 ± 0.003; AR-V7 DC50 (μM) VCaP: 0.43 ± 0.19; AR Dmax (%) LNCaP: 99; AR Dmax (%) CWR22Rv1: 74; AR Dmax (%) VCaP: 94; AR-V7 Dmax (%) CWR22Rv1: 91; AR-V7 Dmax (%) VCaP: 82

[1] = tested on: AR and AR-V7 target gene expression; assay: qRT-PCR of AR and AR-V7 target genes; conditions: CWR22Rv1 cells, 24 h, 5 μM
Experimental: TRIzol™ Reagent (Thermo Fisher Scientific) was used to isolate total RNA, and iScript™ cDNA Synthesis Kit (Bio-Rad, Hercules, CA, USA) was used for cDNA synthesis. The cDNA expression level of each gene was then quantified by the Bio-Rad CFX Real-Time PCR detection system using iTaq Universal SYBR Green Supermix (Bio-Rad) and primers listed in Table S1. All samples were tested in triplicate, and the expression levels were normalized against RPL13A and GAPDH cDNA levels using Bio-Rad CFX software.

VCaP cells = assay: MTT proliferation, VCaP with enzalutamide; conditions: 20 μM enzalutamide, with or without 10 μM PROTAC, up to 8 days
Experimental: Cells were seeded in triplicate in 96-well plates 1 day prior to drug treatment for all assays. For viability test and IC50 assessment, the alamarBlue™ Cell Viability Reagent (Thermo Fisher Scientific) was added to cells 7 days after PROTAC treatment, followed by fluorescence detection as the manufacturer instructed. The IC50 was calculated by dose-inhibition regression. For proliferation monitoring, 2, 4, 6 and 8 days after PROTAC treatment (day 0), viable cells were detected by MTT Cell Proliferation Kit I (Sigma–Aldrich) according to the manufacturer's instructions. Cellular caspase activity was measured by Caspase-Glo 3/7 Assay System (Promega) 1 or 2 days after the drug treatment.
Fig. 6 AR degraders effectively diminish enzalutamide-induced AR-V expression and inhibit enzalutamide-resistant cell growth. (a) VCaP cells were treated with 20 μM enzalutamide (Enz) for 2 days, followed by one-day treatment of mock or 10 μM PROTAC. Full-length AR and AR-V(ΔLBD) was detected by N-terminal AR antibody (top) or AR-V7 specific antibody (middle). […] Cell proliferation was detected by MTT every 2 days after PROTAC treatment, up to 8 days. […] (c) AR protein levels in C4-2B and C4-2B/Enz^R cells treated with mock or 10 μM PROTAC compounds for 1 day were detected by anti-N-terminal-AR and anti-AR-V7 antibodies. […] Cell growth was monitored by MTT every 2 days up to 8 days. […]

Row | Structure (SMILES) | AR protein expression (negative control degraders) (full-length AR) | expression of AR-V7 target genes [1] | VCaP proliferation (MTT) (VCaP cells)
1 | Cc1ncsc1-c1ccc(CNC(=O)[C@@H]2C[C@H](O)CN2C(=O)[C@@H](NC(=O)COCCCCOc2ccc(C3CCN(C4=Nn5c(nnc5C(F)(F)F)CC4)CC3)cc2)C(C)(C)C)cc1 [ITRI-90 inactive, (2S,4S)-1-((S)-3,3-dimethyl-2-(2-(4-(4-(1-(3-(trifluoromethyl)-7,8-dihydro-[1,2,4]triazolo[4,3-b]pyridazin-6-yl)piperidin-4-yl)phenoxy)butoxy)acetamido)butanoyl)-4-hydroxy-N-(4-(4-methylthiazol-5-yl)benzyl)pyrrolidine-2-carboxamide] | did not inhibit the AR protein expression |  | 
2 | CN1C(=O)CCC(N2Cc3c(NC(=O)COCCCCOc4ccc(C5CCN(C6=Nn7c(nnc7C(F)(F)F)CC6)CC5)cc4)cccc3C2=O)C1=O (stereo not shown) [ITRI-126 inactive, N-(2-(1-methyl-2,6-dioxopiperidin-3-yl)-1-oxoisoindolin-4-yl)-2-(4-(4-(1-(3-(trifluoromethyl)-7,8-dihydro-[1,2,4]triazolo[4,3-b]pyridazin-6-yl)piperidin-4-yl)phenoxy)butoxy)acetamide] | did not inhibit the AR protein expression |  | 
3 | CNC(=O)c1ccc(N2C(=S)N(c3ccc(C#N)c(C(F)(F)F)c3)C(=O)C2(C)C)cc1F [enzalutamide] |  | specifically inhibited by the degraders but not enzalutamide | modestly inhibits VCaP proliferation
